Results reported in patent US10927106B2, “Benzothiazole derivatives as DYRK1 inhibitors” (PHARMASUM THERAPEUTICS AS, priority 2017, dated 2021).

Key:
Assay in all cases: Kinase profiling, 33P ATP filter binding assay
Format in all cases: biochemical
Conditions in all cases: 1 micromolar inhibitor concentration, read-out: percentage inhibition
[1] = molecular target: JNK1 (Homo sapiens (Human), UniProt P45983)
[2] = molecular target: p38a MAPK (Homo sapiens (Human), UniProt Q16539)
[3] = molecular target: p38b MAPK (Homo sapiens (Human), UniProt Q15759)
[4] = molecular target: p38g MAPK (Homo sapiens (Human), UniProt P53778)
p38g MAPK, sequence (P53778 whole entry): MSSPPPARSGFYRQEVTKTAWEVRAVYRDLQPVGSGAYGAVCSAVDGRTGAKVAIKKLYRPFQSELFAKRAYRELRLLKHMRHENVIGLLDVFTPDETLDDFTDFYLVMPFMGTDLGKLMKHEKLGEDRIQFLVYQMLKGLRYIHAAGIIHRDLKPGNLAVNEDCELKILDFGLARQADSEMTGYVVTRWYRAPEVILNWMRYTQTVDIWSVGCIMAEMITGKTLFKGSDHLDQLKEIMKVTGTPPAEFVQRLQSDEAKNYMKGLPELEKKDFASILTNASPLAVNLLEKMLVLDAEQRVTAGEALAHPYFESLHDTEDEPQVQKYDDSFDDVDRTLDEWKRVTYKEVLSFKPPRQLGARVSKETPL

[5] = molecular target: p38d MAPK (Homo sapiens (Human), UniProt O15264)
[6] = molecular target: ERK8 (Homo sapiens (Human), UniProt Q8TD08)
[7] = molecular target: RSK1 (Homo sapiens (Human), UniProt Q15418)
[8] = molecular target: PKBa (Homo sapiens (Human), UniProt P31749)
[9] = molecular target: S6K1 (Homo sapiens (Human), UniProt P23443)
[10] = molecular target: PKA (Homo sapiens (Human), UniProt P17612)
[11] = molecular target: PKCz (Homo sapiens (Human), UniProt Q05513)
[12] = molecular target: STK33 (Homo sapiens (Human), UniProt Q9BYT3)
STK33, sequence (Q9BYT3 whole entry, species assumed): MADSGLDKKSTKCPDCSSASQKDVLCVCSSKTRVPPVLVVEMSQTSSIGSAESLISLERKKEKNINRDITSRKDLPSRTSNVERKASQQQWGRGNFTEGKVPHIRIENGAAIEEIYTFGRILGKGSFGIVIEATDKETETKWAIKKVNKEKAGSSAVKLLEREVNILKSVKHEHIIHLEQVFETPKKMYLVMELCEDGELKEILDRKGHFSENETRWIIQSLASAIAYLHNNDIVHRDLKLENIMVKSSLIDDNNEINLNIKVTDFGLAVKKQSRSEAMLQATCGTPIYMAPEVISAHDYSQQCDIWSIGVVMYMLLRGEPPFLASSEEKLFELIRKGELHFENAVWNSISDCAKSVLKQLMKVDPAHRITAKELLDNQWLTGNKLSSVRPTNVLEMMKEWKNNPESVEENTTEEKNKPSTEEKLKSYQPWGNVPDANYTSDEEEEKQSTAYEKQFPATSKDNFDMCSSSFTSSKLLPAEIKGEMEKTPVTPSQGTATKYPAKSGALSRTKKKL

[13] = molecular target: MNK2 (Homo sapiens (Human), UniProt Q9HBH9)
[14] = molecular target: MAPKAP-K3 (Homo sapiens (Human), UniProt Q16644)
[15] = molecular target: CAMK1 (Homo sapiens (Human), UniProt Q14012)
[16] = molecular target: Aurora A (Homo sapiens (Human), UniProt O14965)
Aurora A, sequence (O14965 whole entry): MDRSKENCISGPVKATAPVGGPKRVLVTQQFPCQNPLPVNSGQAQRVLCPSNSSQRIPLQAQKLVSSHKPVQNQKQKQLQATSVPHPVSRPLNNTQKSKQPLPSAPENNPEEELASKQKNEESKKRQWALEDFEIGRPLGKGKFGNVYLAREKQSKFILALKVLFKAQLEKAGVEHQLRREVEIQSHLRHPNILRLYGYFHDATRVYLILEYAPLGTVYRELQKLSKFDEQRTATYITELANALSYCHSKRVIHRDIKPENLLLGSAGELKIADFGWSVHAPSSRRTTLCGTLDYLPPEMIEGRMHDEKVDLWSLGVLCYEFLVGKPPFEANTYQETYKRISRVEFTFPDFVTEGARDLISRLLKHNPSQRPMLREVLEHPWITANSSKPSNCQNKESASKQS

[17] = molecular target: MARK1 (Homo sapiens (Human), UniProt Q9P0L2)
[18] = molecular target: MARK2 (Homo sapiens (Human), UniProt Q7KZI7)
[19] = molecular target: MARK4 (Homo sapiens (Human), UniProt Q96L34)
[20] = molecular target: NEK2a (Homo sapiens (Human), UniProt P51955)
[21] = molecular target: IKKb (Homo sapiens (Human), UniProt O14920)
[22] = molecular target: TBK1 (Homo sapiens (Human), UniProt Q9UHD2)
[23] = molecular target: PIM1 (Homo sapiens (Human), UniProt P11309)
[24] = molecular target: SRPK1 (Homo sapiens (Human), UniProt Q96SB4)
[25] = molecular target: EF2K (Homo sapiens (Human), UniProt O00418)
[26] = molecular target: PAK5 (Homo sapiens (Human), UniProt Q9P286)
[27] = molecular target: GCK (Homo sapiens (Human), UniProt Q12851)
[28] = molecular target: MAP4K3 (Homo sapiens (Human), UniProt Q8IVH8)
[29] = molecular target: MAP4K5 (Homo sapiens (Human), UniProt Q9Y4K4)
[30] = molecular target: TESK1 (Homo sapiens (Human), UniProt Q15569)
[31] = molecular target: IRAK1 (Homo sapiens (Human), UniProt P51617)
IRAK1, sequence (P51617 whole entry, species assumed): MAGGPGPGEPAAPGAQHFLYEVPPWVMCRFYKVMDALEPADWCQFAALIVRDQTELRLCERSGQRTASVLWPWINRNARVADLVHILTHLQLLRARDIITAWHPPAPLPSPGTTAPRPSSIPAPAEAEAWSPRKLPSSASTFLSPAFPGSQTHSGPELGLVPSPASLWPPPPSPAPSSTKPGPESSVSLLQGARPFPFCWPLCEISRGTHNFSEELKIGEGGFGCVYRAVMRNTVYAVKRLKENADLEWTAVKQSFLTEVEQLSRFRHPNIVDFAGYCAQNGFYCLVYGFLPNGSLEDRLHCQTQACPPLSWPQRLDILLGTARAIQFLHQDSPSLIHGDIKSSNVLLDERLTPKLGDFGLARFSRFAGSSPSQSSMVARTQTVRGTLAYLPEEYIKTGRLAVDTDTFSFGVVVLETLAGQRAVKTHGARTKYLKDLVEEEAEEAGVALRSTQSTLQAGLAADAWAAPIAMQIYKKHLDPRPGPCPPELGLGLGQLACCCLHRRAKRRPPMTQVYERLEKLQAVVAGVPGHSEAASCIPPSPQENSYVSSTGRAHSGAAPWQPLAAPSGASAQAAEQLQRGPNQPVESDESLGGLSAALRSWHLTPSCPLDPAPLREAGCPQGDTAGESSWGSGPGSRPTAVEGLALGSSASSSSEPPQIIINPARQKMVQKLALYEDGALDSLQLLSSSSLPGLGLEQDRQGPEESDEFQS

[32] = molecular target: TTK (Homo sapiens (Human), UniProt P33981)
[33] = molecular target: WNK1 (Homo sapiens (Human), UniProt Q9H4A3)
[34] = molecular target: ULK1 (Homo sapiens (Human), UniProt O75385)
[35] = molecular target: YES1 (Homo sapiens (Human), UniProt P07947)
YES1, sequence (P07947 whole entry, species assumed): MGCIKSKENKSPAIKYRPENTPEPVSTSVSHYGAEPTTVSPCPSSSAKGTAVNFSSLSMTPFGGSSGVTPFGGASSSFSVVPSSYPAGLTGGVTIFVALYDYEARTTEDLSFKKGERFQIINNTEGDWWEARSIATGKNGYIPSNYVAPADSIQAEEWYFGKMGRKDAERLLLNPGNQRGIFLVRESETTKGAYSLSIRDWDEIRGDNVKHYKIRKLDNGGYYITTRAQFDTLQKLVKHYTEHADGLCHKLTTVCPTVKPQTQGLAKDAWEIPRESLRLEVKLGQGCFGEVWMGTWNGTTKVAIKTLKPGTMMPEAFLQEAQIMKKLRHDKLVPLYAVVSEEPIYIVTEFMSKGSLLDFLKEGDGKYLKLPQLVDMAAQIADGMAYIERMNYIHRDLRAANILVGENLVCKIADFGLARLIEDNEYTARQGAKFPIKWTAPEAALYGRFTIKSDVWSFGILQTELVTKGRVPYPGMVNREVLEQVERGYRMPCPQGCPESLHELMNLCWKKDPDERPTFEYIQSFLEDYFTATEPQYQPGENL

[36] = molecular target: BRK (Homo sapiens (Human), UniProt Q13882)
[37] = molecular target: EPH-A4 (Homo sapiens (Human), UniProt P54764)
EPH-A4, sequence (P54764 20-986, species assumed): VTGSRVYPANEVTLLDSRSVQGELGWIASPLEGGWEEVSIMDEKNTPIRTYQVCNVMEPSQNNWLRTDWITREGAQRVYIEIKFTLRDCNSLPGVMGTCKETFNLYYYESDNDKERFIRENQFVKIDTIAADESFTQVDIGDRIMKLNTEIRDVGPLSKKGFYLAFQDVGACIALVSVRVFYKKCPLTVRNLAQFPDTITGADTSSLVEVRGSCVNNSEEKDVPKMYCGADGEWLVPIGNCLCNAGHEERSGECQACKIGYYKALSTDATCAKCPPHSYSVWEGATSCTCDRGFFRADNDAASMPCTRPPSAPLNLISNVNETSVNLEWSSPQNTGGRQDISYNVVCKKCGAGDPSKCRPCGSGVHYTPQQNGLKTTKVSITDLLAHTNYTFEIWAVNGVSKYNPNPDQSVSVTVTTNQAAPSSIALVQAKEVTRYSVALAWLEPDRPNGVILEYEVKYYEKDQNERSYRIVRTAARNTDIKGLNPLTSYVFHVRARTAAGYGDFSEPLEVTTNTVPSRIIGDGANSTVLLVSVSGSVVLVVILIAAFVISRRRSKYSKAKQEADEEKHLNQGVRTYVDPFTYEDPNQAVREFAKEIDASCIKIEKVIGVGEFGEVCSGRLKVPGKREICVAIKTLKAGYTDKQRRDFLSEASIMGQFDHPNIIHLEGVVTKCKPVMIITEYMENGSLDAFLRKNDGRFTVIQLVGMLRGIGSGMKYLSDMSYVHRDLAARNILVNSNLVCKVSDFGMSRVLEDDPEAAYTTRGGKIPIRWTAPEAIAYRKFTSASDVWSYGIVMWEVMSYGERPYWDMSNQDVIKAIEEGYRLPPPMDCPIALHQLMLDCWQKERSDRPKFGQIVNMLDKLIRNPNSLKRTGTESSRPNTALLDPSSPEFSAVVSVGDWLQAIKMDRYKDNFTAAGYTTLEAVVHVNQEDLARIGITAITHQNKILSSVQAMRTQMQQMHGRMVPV

[38] = molecular target: EPH-B2 (Homo sapiens (Human), UniProt P29323)
[39] = molecular target: EPH-B4 (Homo sapiens (Human), UniProt P54760)
[40] = molecular target: IRR (Homo sapiens (Human), UniProt P14616)
[41] = molecular target: VEG-FR (Homo sapiens (Human), UniProt P17948)
VEG-FR, sequence (P17948 27-1338): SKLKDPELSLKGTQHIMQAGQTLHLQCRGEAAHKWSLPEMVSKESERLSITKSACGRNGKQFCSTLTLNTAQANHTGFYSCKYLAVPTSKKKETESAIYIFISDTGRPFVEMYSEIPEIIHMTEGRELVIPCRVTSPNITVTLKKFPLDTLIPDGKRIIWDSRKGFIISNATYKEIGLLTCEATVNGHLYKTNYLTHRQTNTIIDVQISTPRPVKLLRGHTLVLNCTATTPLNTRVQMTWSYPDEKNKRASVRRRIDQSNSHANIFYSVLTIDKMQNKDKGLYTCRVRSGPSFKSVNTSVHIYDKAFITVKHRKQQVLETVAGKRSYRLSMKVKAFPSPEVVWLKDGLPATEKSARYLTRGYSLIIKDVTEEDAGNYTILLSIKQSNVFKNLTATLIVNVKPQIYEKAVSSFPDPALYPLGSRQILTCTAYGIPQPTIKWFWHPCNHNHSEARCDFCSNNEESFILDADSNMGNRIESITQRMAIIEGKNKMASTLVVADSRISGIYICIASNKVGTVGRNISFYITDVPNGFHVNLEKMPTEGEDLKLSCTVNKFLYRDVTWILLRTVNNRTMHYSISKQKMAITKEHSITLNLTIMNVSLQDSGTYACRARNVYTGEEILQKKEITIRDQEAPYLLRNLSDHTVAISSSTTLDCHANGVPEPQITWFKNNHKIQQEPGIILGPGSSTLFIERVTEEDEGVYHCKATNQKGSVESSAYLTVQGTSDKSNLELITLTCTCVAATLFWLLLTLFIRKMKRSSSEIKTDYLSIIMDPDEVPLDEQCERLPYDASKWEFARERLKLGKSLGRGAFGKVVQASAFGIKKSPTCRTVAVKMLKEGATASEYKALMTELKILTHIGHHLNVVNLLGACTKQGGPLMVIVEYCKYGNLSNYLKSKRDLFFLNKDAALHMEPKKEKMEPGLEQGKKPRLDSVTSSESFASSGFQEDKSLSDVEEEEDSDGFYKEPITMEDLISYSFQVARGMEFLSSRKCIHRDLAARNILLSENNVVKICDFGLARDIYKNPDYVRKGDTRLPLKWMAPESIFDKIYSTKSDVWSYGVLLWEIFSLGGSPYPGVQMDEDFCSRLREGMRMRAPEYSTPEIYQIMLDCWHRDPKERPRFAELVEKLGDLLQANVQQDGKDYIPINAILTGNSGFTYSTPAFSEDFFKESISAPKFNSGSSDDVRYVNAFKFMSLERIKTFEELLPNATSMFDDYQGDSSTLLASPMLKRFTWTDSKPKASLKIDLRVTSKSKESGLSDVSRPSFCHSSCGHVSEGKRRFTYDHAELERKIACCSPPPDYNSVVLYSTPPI

Structure (SMILES): COc1ccc2sc(-c3cncc(NC(C)=O)c3)nc2c1 [4-93, N-(5-(5-Methoxybenzo[d]thiazol-2-yl)pyridin-3-yl)acetamide]
- inhibition at 1 µM [1]: 0%
- inhibition at 1 µM [2]: 0%
- inhibition at 1 µM [3]: 0%
- inhibition at 1 µM [4]: 0%
- inhibition at 1 µM [5]: 0%
- inhibition at 1 µM [6]: 11%
- inhibition at 1 µM [7]: 1%
- inhibition at 1 µM [8]: 0%
- inhibition at 1 µM [9]: 0%
- inhibition at 1 µM [10]: 12%
- inhibition at 1 µM [11]: 0%
- inhibition at 1 µM [12]: 0%
- inhibition at 1 µM [13]: 0%
- inhibition at 1 µM [14]: 0%
- inhibition at 1 µM [15]: 0%
- inhibition at 1 µM [16]: 0%
- inhibition at 1 µM [17]: 0%
- inhibition at 1 µM [18]: 0%
- inhibition at 1 µM [19]: 0%
- inhibition at 1 µM [20]: 0%
- inhibition at 1 µM [21]: 0%
- inhibition at 1 µM [22]: 0%
- inhibition at 1 µM [23]: 2%
- inhibition at 1 µM [24]: 0%
- inhibition at 1 µM [25]: 0%
- inhibition at 1 µM [26]: 0%
- inhibition at 1 µM [27]: 0%
- inhibition at 1 µM [28]: 0%
- inhibition at 1 µM [29]: 18%
- inhibition at 1 µM [30]: 0%
- inhibition at 1 µM [31]: 0%
- inhibition at 1 µM [32]: 12%
- inhibition at 1 µM [33]: 0%
- inhibition at 1 µM [34]: 0%
- inhibition at 1 µM [35]: 0%
- inhibition at 1 µM [36]: 0%
- inhibition at 1 µM [37]: 0%
- inhibition at 1 µM [38]: 0%
- inhibition at 1 µM [39]: 0%
- inhibition at 1 µM [40]: 0%
- inhibition at 1 µM [41]: 0%

Structure (SMILES): CS(=O)(=O)Nc1cncc(-c2nc3cc(O)ccc3s2)c1 [4-99, N-(5-(5-Hydroxybenzo[d]thiazol-2-yl)pyridin-3-yl)methanesulfonamide]
- inhibition at 1 µM [1]: 0%
- inhibition at 1 µM [2]: 0%
- inhibition at 1 µM [3]: 0%
- inhibition at 1 µM [4]: 0%
- inhibition at 1 µM [5]: 0%
- inhibition at 1 µM [6]: 0%
- inhibition at 1 µM [7]: 0%
- inhibition at 1 µM [8]: 0%
- inhibition at 1 µM [9]: 0%
- inhibition at 1 µM [10]: 3%
- inhibition at 1 µM [11]: 0%
- inhibition at 1 µM [12]: 0%
- inhibition at 1 µM [13]: 0%
- inhibition at 1 µM [14]: 0%
- inhibition at 1 µM [15]: 0%
- inhibition at 1 µM [16]: 0%
- inhibition at 1 µM [17]: 0%
- inhibition at 1 µM [18]: 0%
- inhibition at 1 µM [19]: 0%
- inhibition at 1 µM [20]: 0%
- inhibition at 1 µM [21]: 0%
- inhibition at 1 µM [22]: 0%
- inhibition at 1 µM [23]: 0%
- inhibition at 1 µM [24]: 0%
- inhibition at 1 µM [25]: 0%
- inhibition at 1 µM [26]: 0%
- inhibition at 1 µM [27]: 0%
- inhibition at 1 µM [28]: 0%
- inhibition at 1 µM [29]: 0%
- inhibition at 1 µM [30]: 0%
- inhibition at 1 µM [31]: 0%
- inhibition at 1 µM [32]: 0%
- inhibition at 1 µM [33]: 0%
- inhibition at 1 µM [34]: 0%
- inhibition at 1 µM [35]: 0%
- inhibition at 1 µM [36]: 0%
- inhibition at 1 µM [37]: 0%
- inhibition at 1 µM [38]: 0%
- inhibition at 1 µM [39]: 0%
- inhibition at 1 µM [40]: 0%
- inhibition at 1 µM [41]: 0%
